Test results published in the supplement of paper PMC10307832.

What was measured:
Experiment in all cases: relative viability (nuclei count vs DMSO), 5 days (fraction); higher = more cells survive
[1] = compound: CC1=CN=C(N=C1C2=CNC(=C2)C(=O)N[C@H](CO)C3=CC(=CC=C3)Cl)NC4=C(C=C(C=C4)F)Cl [VX-11e] + NC(=O)Nc1cc(-c2cccc(F)c2)sc1C(=O)N[C@H]1CCCNC1 [AZD7762] (partner 0.2 µM)
Method in brief: (§1)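 The day after seeding in 1536-well plates, lung cancer cell lines were treated by pin tool with a single drug, or with a fixed anchor-drug dose together with five library-drug doses (not always all listed) in √10 steps. After 5 days, a combined fix-and-stain solution (final 0.05% Triton X-100, 1% formaldehyde, 1 ug/ml Hoechst) was added. Nuclei counted on 4× images gave relative viability as treated counts over vehicle counts, reported as the median of duplicate plates.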

[2] = compound: CC1=CN=C(N=C1C2=CNC(=C2)C(=O)N[C@H](CO)C3=CC(=CC=C3)Cl)NC4=C(C=C(C=C4)F)Cl [VX-11e] + CS(=O)(=O)CCNCc1ccc(-c2ccc3ncnc(Nc4ccc(OCc5cccc(F)c5)c(Cl)c4)c3c2)o1 [Lapatinib] (partner 2 µM)
Method in brief: as §1

[3] = compound: CC1=CN=C(N=C1C2=CNC(=C2)C(=O)N[C@H](CO)C3=CC(=CC=C3)Cl)NC4=C(C=C(C=C4)F)Cl [VX-11e] + CC(C)C[C@H](NC(=O)[C@H](Cc1ccccc1)NC(=O)c1cnccn1)B(O)O [Bortezomib] (partner 0.002 µM)
Method in brief: as §1

[4] = compound: CC1=CN=C(N=C1C2=CNC(=C2)C(=O)N[C@H](CO)C3=CC(=CC=C3)Cl)NC4=C(C=C(C=C4)F)Cl [VX-11e] + Nc1ncn([C@H]2C[C@H](O)[C@@H](CO)O2)c(=O)n1 [Decitabine] (partner 2 µM)
Method in brief: as §1

Cell Line	relative viability ([1]; first compound 0.04 µM)	relative viability ([1]; first compound 0.1265 µM)	relative viability ([1]; first compound 0.4 µM)	relative viability ([1]; first compound 1.265 µM)	relative viability ([1]; first compound 4 µM)	relative viability ([2]; first compound 0.04 µM)	relative viability ([2]; first compound 0.1265 µM)	relative viability ([2]; first compound 0.4 µM)	relative viability ([2]; first compound 1.265 µM)	relative viability ([2]; first compound 4 µM)	relative viability ([3]; first compound 0.04 µM)	relative viability ([3]; first compound 0.1265 µM)	relative viability ([3]; first compound 0.4 µM)	relative viability ([3]; first compound 1.265 µM)	relative viability ([3]; first compound 4 µM)	relative viability ([4]; first compound 0.04 µM)	relative viability ([4]; first compound 0.1265 µM)	relative viability ([4]; first compound 0.4 µM)	relative viability ([4]; first compound 1.265 µM)	relative viability ([4]; first compound 4 µM)
201T	0.592	0.586	0.562	0.626	0.74	0.948	0.988	0.943	0.816	0.942	1.05	1.11	1.12	1.02	1.03	0.868	0.84	0.831	0.831	0.758
A549	–	–	–	–	–	0.898	0.903	0.832	0.211	0.135	–	–	–	–	–	–	0.264	0.0929	0.249	0.202
A-427	0.743	0.641	0.633	0.566	0.438	0.966	0.942	1.03	1.05	0.584	1.11	0.955	1.06	1.04	0.479	0.559	0.518	0.569	0.645	0.443
ABC-1	0.988	0.785	0.711	0.779	0.572	1.03	1.06	0.899	1.22	1.53	0.268	0.246	0.262	0.263	0.263	1.11	–	0.992	1.06	0.977
BEN	0.481	0.635	0.823	0.634	0.567	–	0.637	0.888	0.45	0.728	0.543	0.779	0.942	0.533	0.725	0.505	0.645	0.712	0.573	0.654
CAL-12T	0.639	0.641	0.575	0.533	0.544	–	–	0.544	0.565	0.348	–	–	0.91	0.715	0.509	–	–	–	–	–
COR-L23	–	–	–	–	–	1.3	1	0.806	0.634	0.398	1.29	0.967	1.12	0.667	0.348	0.374	0.417	0.396	0.426	0.276
COR-L 105	–	–	–	–	–	0.354	0.324	0.396	0.355	0.381	0.814	0.826	0.6	0.338	0.226	0.685	0.701	0.712	0.705	0.333
ChaGo-K-1	0.889	0.801	0.796	0.896	0.767	–	–	–	–	–	1.01	–	1.11	0.759	0.772	0.534	0.495	0.511	0.51	0.5
EKVX	0.634	0.74	0.764	0.723	0.448	0.205	0.184	0.189	0.108	0.144	1.06	0.977	0.951	1	0.406	0.331	0.397	0.298	0.394	0.232
EMC-BAC-2	1.2	0.96	1.13	1	0.855	0.736	0.807	0.945	0.837	0.732	1.04	1.01	1.14	1.02	0.858	1.02	0.958	0.653	1	0.588
EPLC-272H	0.147	0.21	–	0.201	0.285	0.844	0.577	0.714	0.739	0.48	0.94	0.799	0.841	0.839	0.665	0.331	0.337	–	0.29	0.178
H3255	0.745	0.834	0.859	0.923	0.825	0.245	0.222	0.286	0.281	0.232	0.709	0.857	0.657	0.612	0.64	0.667	0.603	0.482	0.48	0.332
HARA	0.575	0.391	0.258	0.281	0.306	0.673	0.653	0.79	0.666	0.374	0.992	1.08	1.13	0.507	0.803	0.491	0.417	0.38	0.365	0.467
HCC-15	1.41	1.18	–	1.11	0.769	0.949	0.849	0.38	0.565	0.288	1.1	1.07	0.754	0.794	0.428	0.641	0.603	0.225	0.338	0.274
HCC-44	1.03	0.904	1.01	1.07	1.13	0.986	0.974	0.871	0.836	0.88	0.913	0.912	0.857	0.646	0.453	0.995	0.896	0.939	0.904	1.06
HCC-78	0.58	0.814	0.725	0.371	0.527	1.37	0.884	0.944	0.384	0.526	0.565	0.491	0.505	0.227	0.441	0.721	0.698	0.676	0.775	0.786
IA-LM	–	–	–	–	–	0.71	0.945	0.853	0.17	0.126	0.959	0.941	0.927	0.306	0.105	–	–	–	–	–
LCLC-103H	0.766	0.71	0.801	0.606	0.654	–	–	–	–	–	1.07	1.11	1.03	0.658	0.917	0.726	0.701	0.726	0.742	0.608
LK-2	0.299	0.388	0.326	0.316	0.294	–	0.832	0.812	0.522	0.439	–	–	–	–	–	0.179	0.33	0.177	0.208	0.207
NCI-H358	0.594	0.499	–	0.445	0.228	0.41	0.425	–	0.391	0.274	–	–	–	–	–	0.232	0.203	0.124	0.222	0.142
NCI-H441	1.23	1.12	–	1.17	1.05	–	–	–	–	–	0.54	0.436	–	0.963	0.432	0.282	0.273	–	0.218	0.306

Cell Line	relative viability ([1]; first compound 0.04 µM)	relative viability ([1]; first compound 0.1265 µM)	relative viability ([1]; first compound 0.4 µM)	relative viability ([1]; first compound 1.265 µM)	relative viability ([1]; first compound 4 µM)	relative viability ([2]; first compound 0.04 µM)	relative viability ([2]; first compound 0.1265 µM)	relative viability ([2]; first compound 0.4 µM)	relative viability ([2]; first compound 1.265 µM)	relative viability ([2]; first compound 4 µM)	relative viability ([3]; first compound 0.04 µM)	relative viability ([3]; first compound 0.1265 µM)	relative viability ([3]; first compound 0.4 µM)	relative viability ([3]; first compound 1.265 µM)	relative viability ([3]; first compound 4 µM)	relative viability ([4]; first compound 0.04 µM)	relative viability ([4]; first compound 0.1265 µM)	relative viability ([4]; first compound 0.4 µM)	relative viability ([4]; first compound 1.265 µM)	relative viability ([4]; first compound 4 µM)
NCI-H520	–	–	–	–	–	0.951	0.791	0.687	0.87	0.572	0.621	0.49	0.636	0.486	0.474	0.539	0.533	0.492	0.668	0.476
NCI-H522	0.812	0.969	0.82	0.671	0.671	–	–	–	–	–	–	–	–	–	–	0.641	0.648	0.648	0.599	0.573
NCI-H661	–	–	–	–	–	0.527	0.5	0.446	0.386	0.314	0.791	0.899	0.819	0.683	0.583	0.514	0.491	0.502	0.52	0.432
NCI-H1299	–	–	–	–	–	0.984	0.953	1.1	0.918	0.559	0.987	0.978	0.978	1.05	0.556	–	–	–	–	–
NCI-H1395	0.377	0.394	–	0.385	0.365	0.969	0.864	0.548	0.82	0.716	–	–	–	–	–	0.734	0.721	–	0.695	0.62
NCI-H1563	–	–	–	–	–	0.938	0.795	0.529	0.854	0.864	0.884	0.734	0.637	0.739	0.747	–	–	–	–	–
NCI-H1648	–	0.639	0.641	0.703	0.733	–	–	–	–	–	–	–	–	–	–	–	0.584	0.491	0.654	0.42
NCI-H1650	–	–	–	–	–	0.76	0.626	0.204	0.289	0.444	0.192	0.198	0.235	0.199	0.195	0.523	0.406	0.468	0.522	0.526
NCI-H1703	–	–	0.141	0.121	0.122	1.49	1.18	–	1.08	0.791	0.473	0.414	0.258	0.35	0.21	–	–	–	–	–
NCI-H1793	–	0.361	–	0.516	0.191	–	0.611	–	0.397	0.278	–	–	–	–	–	–	0.406	–	0.516	0.351
NCI-H1944	0.513	0.522	0.255	0.449	0.37	0.748	0.733	0.621	0.647	0.586	–	–	–	–	–	0.461	0.509	0.412	0.41	0.374
NCI-H2009	–	–	–	–	–	0.944	0.891	0.729	0.265	0.438	1.08	0.944	0.797	0.254	0.201	0.377	0.394	0.369	0.293	0.244
NCI-H2023	–	–	–	–	–	0.72	0.874	0.1	0.387	0.303	0.993	1.03	0.098	0.394	0.418	0.207	0.222	0.222	0.256	0.228
NCI-H2170	0.758	0.89	0.298	0.632	0.821	0.229	0.259	0.231	0.243	0.252	–	–	–	–	–	0.477	0.442	0.516	0.541	0.547
NCI-H2228	–	–	–	–	–	1.23	1.17	0.158	0.691	0.309	1.18	1.18	0.221	0.681	0.284	–	–	–	–	–
NCI-H2342	–	0.462	0.604	0.508	0.466	–	–	–	–	–	–	–	–	–	–	–	0.797	0.752	0.787	0.6
SK-LU-1	–	–	–	–	–	0.897	0.744	0.524	0.752	0.272	1.01	0.718	–	0.895	0.452	0.619	0.589	0.472	0.668	0.308
SK-MES-1	–	–	–	–	–	0.452	0.414	0.47	0.436	0.282	–	–	–	–	–	0.341	0.384	0.363	0.4	0.272
SW 900	0.439	0.529	–	0.265	0.411	–	–	–	–	–	–	–	–	–	–	0.443	0.491	–	0.529	0.455
SW 1573	–	–	–	–	–	1.11	0.979	1.07	0.891	0.472	0.812	0.854	1.02	0.826	0.64	0.384	0.446	0.363	0.372	0.22
UMC-11	–	–	–	–	–	0.546	0.94	0.712	0.602	0.758	0.562	0.668	0.714	0.598	0.551	–	0.495	0.472	0.454	0.594
